Measured values as given in patent US20200360647A1, “Use Of Inhaled Nitric Oxide For The Improvement Of Right And/Or Left Ventricular Function” (Bellerophon Pulse Technologies LLC, priority 2017, published 2020).
Where “and” joins values, the source holds several entries; their conditions need not be identical. Identical values can stand only once.

Experiments:
Assay type in all cases: in vivo, human
[1] = tested on: subjects with PH-IPF on LTOT; experiment: Safety and tolerability of iNO dose, PH-IPF study
Experimental: The safety endpoints in this study were: • a. Incidence and severity of treatment emergent adverse events (AEs), including those related to device deficiency; • b. Incidence of MetHb levels>7.0%; • c. New symptoms that may be due to rebound PH associated with a temporal acute withdrawal of investigational study drug (i.e., symptoms occurring within 20 minutes of acute withdrawal and including those associated with investigational medical device malfunction or failure): systemic arterial oxygen desaturation, hypoxemia, bradycardia, tachycardia, systemic hypotension, near-syncope, syncope, ventricular fibrillation, and/or cardiac arrest; • d. New or worsening symptoms of left heart failure or pulmonary edema; and • e. Any decrease in systemic oxygenation measured by oxygen saturation of arterial blood by pulse oximetry (SpO2), i.e., hypoxia or oxygen saturation decrease, deemed by the Investigator to be clinically significant.
The initial protocol intended that 4 subjects would be enrolled in Part 2. […] It was decided to temporarily stop recruitment. One of the 2 subjects completed 4 weeks of chronic use in Part 2b.
In the amendment a total of 2 subjects participated in Part 3. The dose in Part 3 was lower than in Part 2 and each subject was titrated to the optimum dose as determined by the investigator. […] The dose was monitored with a RHC in place. […]

[2] = tested on: subjects with PH-IPF on LTOT; experiment: HRCT blood vessel volume, acute iNO, PH-IPF study (IK-7002-COPD-006); settings: iNO 75 mcg/kg IBW/hr, individual patients (Patient 1, Patient 2)
Source text: (§1) This study was an exploratory, three-part, clinical study to assess the effect of pulsed iNO on functional pulmonary imaging parameters in subjects with PH-COPD on LTOT (Part 1) PH-IPF on LTOT (Part 2 and Part 3) (IK-7002-COPD-006; NCT02267655). The objective of this exploratory study was to examine the utility of high resolution computed tomography (HRCT) to measure changes in functional respiratory imaging parameters as a function of short term iNO administration using a pulsed NO delivery device in subjects with PH-IPF (Part 2 and Part 3) on LTOT. The primary endpoint in this exploratory study is the change from baseline in lobar blood volume at total lung capacity (TLC) after dosing with pulsed iNO (Part 1), iNO or Placebo (Part 2a) and after 4 weeks iNO treatment (Part 3b) as measured by HRCT.
This was an exploratory clinical study to evaluated the utility of HRCT to measure the pharmacodynamic effects of short term pulsed administration of iNO using a pulsed NO delivery device in subjects with PH-IPF (Part 2 and Part 3) on LTOT. […]
(§2) The 2 subjects enrolled in Part 3a each received three different doses of iNO utilizing NO cylinder concentration (4,880 ppm) at a dose of 5 mcg/kg IBW/hr, 10 mcg/kg IBW/hr and 30 mcg/kg IBW/hr, all with LTOT. For each dose, the change in PAP pressure and the change in cardiac output was evaluated by RHC. […]

[3] = tested on: subjects with PH-IPF on LTOT; experiment: sPAP by echocardiogram, acute iNO, PH-IPF study; settings: iNO 75 mcg/kg IBW/hr, individual patients (Patient 1, Patient 2)
Source text: as §1, with “HRCT. […]” for “HRCT.”
as §2
During the chronic phase, the vasodilation and the hemodynamics were assessed. […] Both the acute and chronic phases evaluated iNO doses of 30 and 75 mcg/kg IBW/hr.

subjects with PH-COPD [4] = experiment: HRCT blood vessel volume, acute iNO, PH-COPD study (PULSE-COPD-007); settings: individual subjects #1-#7
Source text: (§3) This study is an open label Phase 1 study of iNO therapy in subjects with PH-COPD (PULSE-COPD-007; NCT03135860). The primary outcome of this study is the change in lobar blood volume at total lung capacity with iNO and the change in lobar blood volume with iNO after 4 weeks of treatment with iNO as measured by HRCT.
(§4) Subjects also had sPAP≥38 mm Hg as measured by echocardiogram, a post-bronchodilatory FEV1/FVC<0.7 and a FEV1<60% predicted. All subjects were at least 40 years old and were current or former smokers with at least 10 pack-years of tobacco cigarette smoking before study entry. All subjects also had been receiving LTOT for at least 3 months for at least 10 hours per day.
(§5) The PH-COPD subjects received pulsed iNO therapy for 4 weeks for at least 12 hours/day. The iNO was administered utilizing a 4,880 ppm NO cylinder concentration.
(§6) A further analysis was performed of seven PH-COPD subjects that completed 4 weeks of treatment with iNO at a dose of 30 mcg/kg IBW/hr.

[5] = tested on: subjects with PH-IPF on LTOT; experiment: TAPSE (RV function) during chronic pulsed iNO therapy, PH-IPF study
Source text: (§7) Maintenance and/or improvements in RV function can be assessed by many echocardiographic measurements. One such quantitative approach to assess RV function is the measurement of the TAPSE. The TAPSE estimates RV systolic function by measuring the level of systolic excursion of the lateral tricuspid valve annulus towards the apex. An excellent correlation between the TAPSE and RV ejection fraction as assessed by radionuclide angiography has previously been established and the approach appears reproducible and proven to be a strong predictor of prognosis in heart failure. [Reference: Heart. 2006 April; 92(Suppl 1): i19-i26.]
The secondary endpoints of Part 2a (acute; placebo vs. iNO 75 mcg/kg IBW/hr) were change in Borg CR10 leg fatigue and dyspnea scale, changes in breathing questionnaire and changes in right ventricular and left ventricular function.
One patient from Part 2a entered into Part 2b. During Part 2b patient receive iNO utilizing NO cylinder concentration (4,880 ppm) at a dose of 75 mcg/kg IBW/hr during 4 weeks for at least 12 hours/day.
The 2 patients from Part 3a entered Part 3b. During Part 3b, patients received iNO utilizing NO cylinder concentration (4,880 ppm) at a dose of 30 mcg/kg IBW/hr.
Subject 1 received pulsed iNO at a dose of 75 mcg/kg IBW/hr for 4 weeks, and Subject 3 received pulsed iNO at a dose of 30 mcg/kg IBW/hr for 4 weeks.

subjects with PH-COPD [6] = experiment: Six-minute walk distance (6MWD) during chronic iNO therapy, PH-COPD study; settings: iNO 30 mcg/kg IBW/hr, individual subjects #1-#7
Source text: as §3, §4, §5, §6

subjects with PH-COPD [7] = experiment: sPAP by echocardiogram during chronic iNO therapy, PH-COPD study
Source text: as §3, §4, §5
A further analysis was performed of seven PH-COPD subjects that completed 4 weeks of treatment with iNO at a dose of 30 mcg/kg IBW/hr. […]

subjects with PH-COPD [8] = experiment: TAPSE (RV function) during chronic pulsed iNO therapy, PH-COPD study; parameters: TAPSE Increase: unit not given beside the values
Source text: as §7, §3, §4, §5
These subjects were diagnosed with PH-COPD and received 4 weeks of treatment with iNO at a dose of 30 mcg/kg IBW/hr. The results verify the increase in TAPSE which correlates to RV function.

[9] = PH-IPF Subject 1, pulsed iNO 75 mcg/kg IBW/hr for 4 weeks, vs baseline
[10] = PH-IPF Subject 3, pulsed iNO 30 mcg/kg IBW/hr for 4 weeks, vs baseline
[11] = PH-IPF, average of Subject 1 (75) and Subject 3 (30 mcg/kg IBW/hr), 4 weeks, vs baseline
[12] = group value, vs baseline 60.3 mm Hg, p=0.02
[13] = iNO 30 mcg/kg IBW/hr, 4 weeks vs baseline, individual subjects #1-#7
[14] = iNO 30 mcg/kg IBW/hr for 4 weeks, average of four subjects, vs baseline
[15] = iNO 30 mcg/kg IBW/hr for 4 weeks, vs baseline, individual subjects (1, 6, 7, 12)

`[N]=O` [iNO, nitric oxide] was tested. Which “Safety of dose titration monitored with RHC” value ([1]; 2 PH-IPF subjects of Part 3, titrated 5, 10, 30 mcg/kg IBW/hr) did it give?
Its value is “could titrate to iNO at a dose of 30 mcg/kg IBW/hr safely”.

What about the “PAP after discontinuation of iNO” value ([1]; two PH-IPF patients of Part 2, iNO 75 mcg/kg IBW/hr) of the same compound?
The value was “sudden increase in PAP after discontinuation”.

And the “Acute change in Blood Vessel Volume %” value [2]?
Its value is 14.0 ± 4.7% and 34.2 ± 7.6%.

What about the “Acute Change in sPAP (%)” value [3] of the same compound?
The value was −9.3% and −9.7%.

And the “Acute change in Blood Vessel Volume %” value (subjects with PH-COPD [4])?
Its value is 6.2 ± 1.6% and 3.3 ± 2.1% and 6.6 ± 4.5% and 9.7 ± 3.5% and −1.0 ± 4.0% and 2.7 ± 0.4%.

And the “TAPSE % Change” value [5, 9]?
Its value is 21%.

And the “TAPSE Increase” value [5, 9]?
The value was 3.

What about the “TAPSE % Change” value [5, 10] of the same compound?
The value was 12%.

And the “TAPSE Increase” value [5, 10]?
Its value is 4.

What about the “TAPSE % Change, Average” value [5, 11] of the same compound?
Its value is 15%.

And the “TAPSE Increase, Average” value [5, 11]?
The value was 3.

What about the “TAPSE 4 Week, Average” value ([5]; PH-IPF, average of Subject 1 (75 mcg/kg IBW/hr) and Subject 3 (30 mcg/kg IBW/hr), 4 weeks, baseline 20) of the same compound?
The value was 23.

And the “6MWD Change from Baseline, 2 weeks iNO” value (subjects with PH-COPD [6]; 2 weeks vs baseline)?
The value was “+135 meters and +79 meters and +15 meters and +35 meters and +25 meters and +57 meters and +32 meters”.

What about the “6MWD, 2 weeks iNO” value (subjects with PH-COPD [6]; 2 weeks) of the same compound?
The value was 335 meters and 263 meters and 493 meters and 115 meters and 495 meters and 400 meters and 173 meters.

And the “6MWD Change from Baseline, 4 weeks iNO” value (subjects with PH-COPD [6]; 4 weeks vs baseline)?
The value was “+135 meters and +11 meters and +2 meters and −3 meters and +28 meters and +80 meters and +100 meters”.

What about the “6MWD, 4 weeks iNO” value (subjects with PH-COPD [6]; 4 weeks) of the same compound?
Its value is 335 meters and 195 meters and 480 meters and 77 meters and 498 meters and 423 meters and 242 meters.

And the “sPAP 4 weeks after iNO therapy was discontinued” value (subjects with PH-COPD [7]; group value (FIG. 6))?
The value was 58.0 mm Hg.

And the “sPAP drop after 4 weeks of iNO therapy” value (subjects with PH-COPD [7]; [12])?
The value was 12.0 mm Hg.

And the “sPAP drop after 4 weeks of iNO therapy (%)” value (subjects with PH-COPD [7]; [12])?
Its value is 19.9%.

What about the “sPAP, 4 weeks iNO” value (subjects with PH-COPD [7]; iNO 30 mcg/kg IBW/hr for 4 weeks, individual subjects #1-#7) of the same compound?
Its value is 69 mm Hg and 37 mm Hg and 40 mm Hg and 74 mm Hg and 30 mm Hg and 34 mm Hg and 54 mm Hg.

And the “Change sPAP (mm Hg)” value (subjects with PH-COPD [7]; [13])?
Its value is −25 mm Hg and −10 mm Hg (2×) and −15 mm Hg and −4 mm Hg and −12 mm Hg and −8 mm Hg.

What about the “sPAP % Change” value (subjects with PH-COPD [7]; [13]) of the same compound?
The value was −27% (2×) and −21% and −5% and −25% and −26% and −13%.

What about the “TAPSE after iNO therapy was discontinued” value (subjects with PH-COPD [8]; group value, N=5 (FIG. 7)) of the same compound?
The value was 19.0.

And the “TAPSE 4 Week, Average” value (subjects with PH-COPD [8]; iNO 30 mcg/kg IBW/hr for 4 weeks, average of four subjects, baseline 16)?
Its value is 20.

What about the “TAPSE % Change, Average” value (subjects with PH-COPD [8]; [14]) of the same compound?
Its value is 25%.

And the “TAPSE Increase, Average” value (subjects with PH-COPD [8]; [14])?
Its value is 4.

What about the “TAPSE 4 Week” value (subjects with PH-COPD [8]; iNO 30 mcg/kg IBW/hr for 4 weeks, individual subjects (1, 6, 7, 12)) of the same compound?
Its value is 14 and 18 (2×) and 28.

And the “TAPSE % Change” value (subjects with PH-COPD [8]; [15])?
The value was 0% and 67% and 22% and 13%.

And the “TAPSE Increase” value (subjects with PH-COPD [8]; [15])?
Its value is 0 and 7 and 5 and 2.
